{"source": "patent US9089561B2", "about": "“Methods for treating depression, neurodegeneration, inhibiting amyloid β deposition, delaying senescence, and extending life spans with heterocyclic compounds” (ZENYAKU KOGYO KABUSHIKI KAISHA, priority 2006, dated 2015)", "key": {"[1]": {"system": "senescene accelerated mice (SAMP8)", "assay": "grading scores as aging indicator in senescene accelerated mice", "type": "in vivo", "procedure": "(§1) Senescene accelerated mice (SAMP8) (male, 8 months old at the beginning of the study) were used in the study.\n(§2) Compound 24 dissolved in tap water was given to the senescene accelerated mice at a dosage of 0.001, 0.01, or 0.1 mg/kg/day as drinking water. Tap water was given to the control mice as drinking water.\nAs an aging indicator of senescene accelerated mice, grading scores (Takeda et al., 1981) were measured after 0, 4, 8, 12, and 16 weeks of drinking water dosing in a short term study and after 12, 16, 20, 24, 28, and 32 weeks of drinking water dosing in a long term study."}, "[2]": {"system": "senescene accelerated mice (SAMP8)", "assay": "survival rate / average life span of senescene accelerated mice", "type": "in vivo", "conditions": "0.01 mg/kg/day in drinking water, vs control group given tap water, at any age in month", "procedure": "as §1, §2\nFIG. 6 is a graphical representation showing the influence of Compound 24 on the survival rate of senescene accelerated mice (SAMP8). The age in months of mice is plotted as abscissa and the survival rate (%) is plotted as ordinate."}, "[3]": {"system": "senescene accelerated mice (SAMP8)", "assay": "amyloid β deposition in the hippocampus by amyloid β immunohistochemistry", "type": "in vivo", "conditions": "0.002, 0.01 and 0.1 mg/kg/day in drinking water for 2 months, vs tap water", "procedure": "Senescene accelerated mice (SAMP8) (male, 8 months old at the beginning of the study) were used for experiment. […] Eight weeks after the dosing, the mouse brain was removed, Methacarn-fixed (methanol:chloroform: acetic acid=6:3:1), and paraffin-embedded. Then, sections of 8 μm in thickness were prepared using a microtome.\nThe sections were immunostained with streptavidin-biotin using a VECTASTATIN ABC kit. After one hour of incubation in 10% normal goat serum, the anti-amyloid β (Aβ) antibody was diluted with PBS to ten fold and incubated at 4° C. overnight. The following day, PBS rinsing, 1.5 hours of incubation with biotinylated anti-rabbit secondary antibody, PBS rinsing, and 1.5 hours of incubation with peroxidase-labeled streptavidin were conducted. The immunoreaction was visualized with DAB and specimens were prepared.\nImmunoreactive Aβ-like granules in the hippocampus were counted under the microscope. The Aβ-like immunoreactive granule was observed as brown deposits in the hippocampus. The count was made for one section per individual."}, "[4]": {"assay": "preclinical study (safety)"}, "[5]": {"system": "gerbil transient forebrain ischemia model", "assay": "delayed neuronal death in hippocampus CA1 region, gerbil transient forebrain ischemia model", "type": "in vivo", "conditions": "four days after reperfusion", "procedure": "Gerbils (male, weighing approximately 55 to 80 g) were pinched with an exposured bilateral common carotid artery by microclip to cause the cerebral ischemia under 2% halothane inhalation anesthesia. After four minutes of ischemia, the microclip was removed to reperfuse the cerebral ischemia and the anesthesia was stopped. Four days after the reperfusion, the brain was removed and formalin-fixed. Sections of 4 μm in thickness were prepared and stained with hematoxylin-eosin. Surviving cells in the entire hippocampus CA1 field on both sides of each specimen were counted using a micrometer under the microscope. The number of surviving cells per 0.5 mm was obtained.\nCompound 24 was suspended in 1% HPC and orally given one hour before the cerebral ischemia and 5 hours after the reperfusion. Then, two doses per day were given from the following day to the third day since the perfusion. The surviving cell count in the hippocampus CA1 field was expressed by the average±standard error. The Mann-Whitney's U test was used to obtain significant differences. The effective oral dosage of Compound 24 was plotted as abscissa and the surviving cell count/0.5 mm was plotted as ordinate."}}, "data": [{"smiles": "O=C1N=C2C=CC=CN2C12Cc1ccccc1C2", "note": "[Compound 24, spiro[imidazo[1,2-a]pyridin-2(3H)-one-3,2′-indan]]", "values": [{"measurement": "grading score vs control, long term study", "setting": "[1]; 0.01 mg/kg/day in drinking water, Weeks 20 to 32", "result": "significant differences (*, **)"}, {"measurement": "grading score vs control, long term study", "setting": "[1]; 0.1 mg/kg/day in drinking water, Weeks 16 to 32", "result": "significant differences (*, **)"}, {"measurement": "grading score vs control, short term study", "setting": "[1]; Week 16, 0.001, 0.01 and 0.1 mg/kg/day in drinking water", "result": "Significant differences (*)"}, {"measurement": "grading score (aging indicator), short term study", "setting": "[1]; in drinking water, up to 16 weeks, score of water group increased after Week 12", "result": "did not increase"}, {"measurement": "average life span (survival rate)", "setting": "[2]", "result": "average life span was extended"}, {"measurement": "number of amyloid β-immunoreactive granules in the hippocampus", "setting": "[3]", "result": "significantly (*) decreased"}, {"measurement": "safety in a preclinical study", "setting": "[4]", "result": "highly safe"}, {"measurement": "surviving cell count in the hippocampus CA1 field", "setting": "[5]; 0.01 mg/kg oral, n=7, average±standard error", "result": "27.8±1.9 /0.5 mm"}, {"measurement": "surviving cell count in the hippocampus CA1 field", "setting": "[5]; 0.1 mg/kg oral, n=8, average±standard error", "result": "32.5±9.4 /0.5 mm"}, {"measurement": "surviving cell count in the hippocampus CA1 field", "setting": "[5]; 1 mg/kg oral, n=9, average±standard error", "result": "44.3±9.4 /0.5 mm"}]}]}
